US20200017496A1 (priority 2017, published 2020)

Assays:
Assay type in all cases: cell-based
[1] = system: Proteus mirabilis (PMI) isolates; experiment: microbe, parasite or virus in culture; conditions: AF1 @ 4 μg/mL
Procedure, shortened: (§1)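 Log-phase bacteria at a final 5·10^5 CFU/mL in cation-adjusted Mueller-Hinton broth were incubated 16-20 h at 35° C in ambient air with compound alone or with an antibacterial. MIC was the lowest concentration preventing visible growth; combination MIC of the antibacterial was read at each compound concentration.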

[2] = system: Enterobacter cloacae (ECL) isolates; experiment: MIC of compounds alone and combined with antibacterials, broth microdilution (CLSI)
Procedure, shortened: as §1

[3] = system: Escherichia coli (ECO) isolates; experiment: as above; conditions: AF1 @ 4 μg/mL
Procedure, shortened: as §1

[4] = system: Salmonella typhimurium (STY) isolates; experiment: as above; conditions: STY S3371; AF1 @ 4 μg/mL
Procedure, shortened: as §1

COCC1=C(C(=O)O)N2C(=O)[C@@H](NC(=O)/C(=N\OC)c3csc(N)n3)[C@H]2SC1 [POD, Cefpodoxime]
MIC ATB in combination ([1]; PMI UFR82): 1 µg/mL | MIC ATB in combination ([1]; PMI UFR120): <=0.25 μg/mL | MIC ATB in combination ([1]; PMI UFR121): <=0.25 μg/mL | MIC ATB in combination ([1]; PMI UFR122): <=0.25 μg/mL | MIC ATB in combination ([1]; PMI UFR123): <=0.25 μg/mL | MIC ATB in combination ([1]; PMI UFR124): <=0.25 μg/mL | MIC ATB in combination ([1]; PMI UFR125): <=0.25 μg/mL | MIC ATB in combination ([1]; PMI UFR126): <=0.25 μg/mL | MIC ATB in combination ([1]; PMI UFR127): <=0.25 μg/mL | MIC ATB in combination ([1]; PMI UFR129): <=0.25 μg/mL | MIC ATB in combination ([1]; PMI UFR130): 0.5 µg/mL | MIC ATB in combination ([1]; PMI UFR237): <=0.25 μg/mL | MIC ATB in combination ([2]; ECL 2185D, AF1 @ 4 μg/mL): >128 µg/mL | MIC ATB in combination ([2]; ECL 190310, AF1 @ 4 μg/mL): 64 µg/mL | MIC ATB in combination ([2]; ECL 190408, AF1 @ 4 μg/mL): <=0.25 μg/mL | MIC ATB in combination ([2]; ECL 200138, AF1 @ 4 μg/mL): 32 µg/mL | MIC ATB in combination ([2]; ECL 200322, AF1 @ 4 μg/mL): 1 µg/mL | MIC ATB in combination ([2]; ECL 260033, AF1 @ 4 μg/mL): 128 µg/mL | MIC ATB in combination ([2]; ECL 260253, AF1 @ 4 μg/mL): 8 µg/mL | MIC ATB in combination ([2]; ECL 260323, AF1 @ 4 μg/mL): 32 µg/mL | MIC ATB in combination ([2]; ECL 260508, AF1 @ 4 μg/mL): 1 µg/mL | MIC ATB in combination ([2]; ECL NEM146383, AF1 @ 4 μg/mL): 16 µg/mL | MIC ATB in combination ([2]; ECL P99, AF1 @ 4 μg/mL): 16 µg/mL | MIC ATB in combination ([2]; ECL UFR12, AF1 @ 4 μg/mL): 1 µg/mL | MIC ATB in combination ([2]; ECL UFR13, AF1 @ 4 μg/mL): 8 µg/mL | MIC ATB in combination ([2]; ECL UFR14, AF1 @ 4 μg/mL): 8 µg/mL | MIC ATB in combination ([2]; ECL UFR60, AF1 @ 4 μg/mL): 1 µg/mL | MIC ATB in combination ([2]; ECL UFR70, AF1 @ 4 μg/mL): 8 µg/mL | MIC ATB in combination ([2]; ECL UFR84, AF1 @ 4 μg/mL): 32 µg/mL | MIC ATB in combination ([2]; ECL UFR85, AF1 @ 4 μg/mL): 4 µg/mL | MIC ATB in combination ([2]; ECL UFR194, AF1 @ 4 μg/mL): 1 µg/mL | MIC ATB in combination ([2]; ECL UFR200, AF1 @ 4 μg/mL): 1 µg/mL | MIC ATB in combination ([2]; strain ECL UFR195, antibacterial combined with AF1 @ 4 μg/mL): 1 µg/mL | MIC ATB in combination ([2]; strain ECL UFR196, antibacterial combined with AF1 @ 4 μg/mL): 2 µg/mL | MIC ATB in combination ([2]; strain ECL UFR197, antibacterial combined with AF1 @ 4 μg/mL): 8 µg/mL | MIC ATB in combination ([2]; strain ECL UFR198, antibacterial combined with AF1 @ 4 μg/mL): 8 µg/mL | MIC ATB in combination ([3]; ECO 4133): <=0.25 μg/mL | MIC ATB in combination ([3]; ECO 5302): <=0.25 μg/mL | MIC ATB in combination ([3]; ECO 131119): <=0.25 μg/mL | MIC ATB in combination ([3]; ECO 180070): <=0.25 μg/mL | MIC ATB in combination ([3]; ECO 190314): <=0.25 μg/mL | MIC ATB in combination ([3]; ECO 190317): <=0.25 μg/mL | MIC ATB in combination ([3]; ECO 190457): <=0.25 μg/mL | MIC ATB in combination ([3]; ECO 190549): <=0.25 μg/mL | MIC ATB in combination ([3]; ECO 200159): <=0.25 μg/mL | MIC ATB in combination ([3]; ECO 200259): <=0.25 μg/mL | MIC ATB in combination ([3]; ECO 200344): <=0.25 μg/mL | MIC ATB in combination ([3]; ECO 260096): <=0.25 μg/mL | MIC ATB in combination ([3]; ECO 260304): <=0.25 μg/mL | MIC ATB in combination ([3]; ECO 260508): <=0.25 μg/mL | MIC ATB in combination ([3]; ECO RGN238): <=0.25 μg/mL | MIC ATB in combination ([3]; ECO UFR15): <=0.25 μg/mL | MIC ATB in combination ([3]; ECO UFR16): 1 µg/mL | MIC ATB in combination ([3]; ECO UFR17): >128 µg/mL | MIC ATB in combination ([3]; ECO UFR18): 8 µg/mL | MIC ATB in combination ([3]; ECO UFR19): 4 µg/mL | MIC ATB in combination ([3]; ECO UFR20): 4 µg/mL | MIC ATB in combination ([3]; ECO UFR61O): 0.5 µg/mL | MIC ATB in combination ([3]; ECO UFR62): 0.5 µg/mL | MIC ATB in combination ([3]; ECO UFR74): 2 µg/mL | MIC ATB in combination ([3]; ECO UFR86): 1 µg/mL | MIC ATB in combination ([3]; ECO UFR174): <=0.25 μg/mL | MIC ATB in combination ([3]; ECO UFR175): 1 µg/mL | MIC ATB in combination ([3]; ECO UFR176): <=0.25 μg/mL | MIC ATB in combination ([3]; ECO UFR184): 4 µg/mL | MIC ATB in combination ([3]; ECO UFR185): 32 µg/mL | MIC ATB in combination ([3]; ECO UFR186): 1 µg/mL | MIC ATB in combination ([3]; ECO UFR187): 0.5 µg/mL | MIC ATB in combination ([3]; ECO UFR189): <=0.25 μg/mL | MIC ATB in combination ([3]; ECO UFR190): <=0.25 μg/mL | MIC ATB in combination ([3]; ECO UFR191): <=0.25 μg/mL | MIC ATB in combination ([3]; ECO UFR207): <=0.25 μg/mL | MIC ATB in combination ([3]; ECO UFR208): 64 µg/mL | MIC ATB in combination ([3]; ECO UFR209): <=0.25 μg/mL | MIC ATB in combination ([3]; ECO UFR210): <=0.25 μg/mL | MIC ATB in combination ([3]; ECO UFR211): <=0.25 μg/mL | MIC ATB in combination ([3]; ECO UFR212): 32 µg/mL | MIC ATB in combination ([3]; ECO UFR218): <=0.25 μg/mL | MIC ATB in combination [4]: <=0.25 μg/mL
